Experimental data published in patent US20040077602A1, “Mixture composition for controlling ectoparasites” (Meiji Seika Kaisha, Ltd., priority 2002, published 2004).

System: Dermanyssus gallinae
Test: Miticidal effect against Dermanyssus gallinae (Pasteur pipette residual contact test, Test Example 1)
Assay type: in vivo
Conditions: single agent, sucking adult mites, 25° C.
Excerpt: Miticidal Effect Against Dermanyssus gallinae
The tip of a Pasteur pipette was sealed with Parafilm, and a sample compound diluted with acetone to a designated concentration was poured into the pipette from its top. The Parafilm in the tip of the pipette was removed one min after the pouring to discharge the test solution, and the pipette was air dried. Thereafter, an absorbent cotton was inserted into the upper end of the pipette, and sucking adult mites of Dermanyssus gallinae were released in the pipette. The tip of the pipette was sealed with Hematoseal, and the pipette was then placed in a desiccator containing a saturated ammonium sulfate solution in its bottom and was stored under fully darkened conditions at 25° C. The mites were observed under a stereomicroscope 4 hr after and 24 hr after the treatment to judge whether the mites were dead or survived, followed by determination of the miticidal rate (%).

| Structure (SMILES) | Miticidal rate 4 hr after treatment (50 ppm) | Miticidal rate 24 hr after treatment (50 ppm) | Miticidal rate 4 hr after treatment (5 ppm) | Miticidal rate 24 hr after treatment (5 ppm) |
| --- | --- | --- | --- | --- |
| CC1(C)C(C=C(Cl)Cl)C1C(=O)OC(C#N)c1ccc(F)c(Oc2ccccc2)c1 (stereo not shown) [Cyfluthrin, cyfluthrin] | 0% | 0% | – | – |
| CC1(C)C(C=C(Cl)c2ccc(Cl)cc2)C1C(=O)OC(C#N)c1ccc(F)c(Oc2ccccc2)c1 (stereo not shown) [Flumethrin, flumethrin] | 5% | 10% | – | – |
| COC(=O)Oc1c(C)c(C)nc2ccc(F)c(F)c12 [Compound 25, 2,3-dimethyl-4-methoxycarbonyloxy-5,6-difluoroquinoline] | – | – | 70% | 80% |
| CC1(C)C(C=C(Cl)Cl)C1C(=O)OCc1cccc(Oc2ccccc2)c1 (stereo not shown) [Permethrin, permethrin] | 0% | 0% | – | – |
| CCc1nc2ccc(F)c(F)c2c(OC(=O)C2CC2)c1C [Compound 2, 2-ethyl-3-methyl-4-cyclopropanecarbonyloxy-5,6-difluoroquinoline] | – | – | 40% | 50% |
